According to patent US11607414B2, “Small molecule inhibitors of EGFR and PI3K” (The Regents of the University of Michigan, priority 2014, dated 2023):

Key:
Solubility comparison = format: physicochemical
PIK3CA = PIK3CA (Homo sapiens, UniProt P42336); assay: ADAPTA universal kinase assay, PIK3CA; format: biochemical
Protocol: Various compounds were tested for their ability to inhibit EGFR and PIK3CA. The assays determining inhibitions are given in Example 2 Assays-Z′-LYTE® and ADAPTA.
Enzyme: The ADAPTA universal kinase assay is a homogenous, fluorescent based immunoassay for the detection of ADP. In contrast to ATP depletion assays, the ADAPTA assay is extremely sensitive to ADP formation such that a majority of the signal change occurs in the first 10-20% conversion of ATP to ADP. This makes the ADAPTA universal kinase assay ideally suited for use with low activity kinases.
The principle of the ADAPTA universal kinase assay is outlined below. The assay itself can be divided into two phases: a kinase reaction phase, and an ADP detection phase. […]
ADP formation is determined by calculating the emission ratio from the assay well. The emission ratio is calculated by dividing the intensity of the tracer (acceptor) emission by the intensity of the Eu (donor) emission at 615 nm as shown in the equation below.
Adapta® Assay Conditions' • Test Compounds: The Test Compounds are screened in 1% DMSO (final) in the well. […] ATP Km apparent is previously determined using a radiometric assay except when no substrate is available in which case an Adapta® assay is conducted. • Detection Mix: The Detection Mix is prepared in TR-FRET Dilution Buffer. […] Read on fluorescence plate reader and analyze the data.

[1] = tested on: phosphorylation of EGFR in HCT-116 tumors; assay: In vivo pharmacodynamics in subcutaneous HCT-116 tumors, pEGFR; settings: single oral dose 100 mg/kg, two hours post-dosing
Source text: (§1) However, additional synthesis of MOL-162 is needed to allow a full pharmacodynamic time course study to be carried out to determine the maximal degree of target inhibition of both targets after single and repeated daily dosing.

[2] = tested on: pAKT and pEGFR in HCT-116 cells; assay: Effect on pAKT and pEGFR in HCT-116 cells (Western blot); format: cell-based
Protocol: [50 mmol/L Tris-HCl (pH 8.0), 150 mmol/L NaCl, 1% NP40, 0.5% Na-deoxycholate, 0.1% SDS, containing protease (P8340, Sigma, St. Louis, Mo.) and phosphatase (P5726, Sigma) inhibitor cocktails]. The soluble protein concentration was determined by micro-bovine serum albumin assay (Pierce, Rockford, Ill.). Protein immunodetection was done by electrophoretic transfer of SDS-PAGE separated proteins to nitrocellulose, incubation with antibody, and chemiluminescent second step detection (PicoWest, Pierce). The antibodies included EGFR, phospho-EGFR (Y1068), phospho-p42/p44, phospho-Akt (473), phospho-Akt (308), total Akt, phosho-S6 (235/236), and total S6. All antibodies were obtained from Cell Signaling Technologies (Danvers, Mass.). […]
Cell extracts were prepared by detergent lysis [25 mmol/L Tris-HCl (pH 7.6), 150 mmol/L NaCl, 1% Nonidet P-40, 10% glycerol, 1 mM EDTA, 1 mmol/L dithiothreitol (DTT), and protease and phosphatase inhibitors, rocked for 30 minutes at 4° C., and centrifuged at 14,000 rpm for 20 min at 4° C. Protein concentration was determined by BioRad Protein Assays and lysates were subsequently subjected to SDS gel electrophoresis. […] After incubation with either anti-rabbit HRP or anti-mouse HRP linked secondary antibody (Jackson ImmunoResearch Laboratories, Inc.), proteins were detected using chemiluminescence (GE Healthcare).

[3] = tested on: phosphorylation of AKT in HCT-116 tumors; assay: In vivo pharmacodynamics in subcutaneous HCT-116 tumors, pAKT; settings: single oral dose 100 mg/kg, two hours post-dosing
Source text: as §1

Sequence of PIK3CA (P42336 whole entry): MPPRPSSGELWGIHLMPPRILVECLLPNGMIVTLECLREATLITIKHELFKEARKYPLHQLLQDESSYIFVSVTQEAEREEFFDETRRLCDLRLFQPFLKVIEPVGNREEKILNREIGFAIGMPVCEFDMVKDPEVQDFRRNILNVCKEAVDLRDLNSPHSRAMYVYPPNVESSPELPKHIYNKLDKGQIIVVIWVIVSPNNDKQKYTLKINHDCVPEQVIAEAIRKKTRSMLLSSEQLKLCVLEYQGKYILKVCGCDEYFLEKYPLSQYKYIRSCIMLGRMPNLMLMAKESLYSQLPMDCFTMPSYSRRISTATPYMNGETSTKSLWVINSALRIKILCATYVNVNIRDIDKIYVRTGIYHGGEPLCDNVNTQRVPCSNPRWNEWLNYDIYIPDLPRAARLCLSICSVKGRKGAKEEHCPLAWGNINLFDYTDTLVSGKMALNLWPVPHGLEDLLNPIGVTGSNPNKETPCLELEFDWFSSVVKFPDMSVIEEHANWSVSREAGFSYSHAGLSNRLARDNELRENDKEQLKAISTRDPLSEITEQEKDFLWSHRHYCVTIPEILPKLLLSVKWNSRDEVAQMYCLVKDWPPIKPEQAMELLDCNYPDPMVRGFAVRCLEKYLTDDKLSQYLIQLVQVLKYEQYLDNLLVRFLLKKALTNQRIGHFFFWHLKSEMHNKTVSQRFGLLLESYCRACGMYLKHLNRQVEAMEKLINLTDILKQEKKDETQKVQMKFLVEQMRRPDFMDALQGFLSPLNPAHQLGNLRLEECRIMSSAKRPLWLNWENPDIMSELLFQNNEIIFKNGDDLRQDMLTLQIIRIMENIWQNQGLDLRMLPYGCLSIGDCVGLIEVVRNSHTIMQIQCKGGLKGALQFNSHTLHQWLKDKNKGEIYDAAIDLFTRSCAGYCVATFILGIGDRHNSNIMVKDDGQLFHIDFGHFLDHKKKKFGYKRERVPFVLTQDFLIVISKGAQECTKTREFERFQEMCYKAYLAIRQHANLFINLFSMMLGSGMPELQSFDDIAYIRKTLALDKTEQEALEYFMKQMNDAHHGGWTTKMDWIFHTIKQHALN
Sequence of PIK3CA (P27986 whole entry partner): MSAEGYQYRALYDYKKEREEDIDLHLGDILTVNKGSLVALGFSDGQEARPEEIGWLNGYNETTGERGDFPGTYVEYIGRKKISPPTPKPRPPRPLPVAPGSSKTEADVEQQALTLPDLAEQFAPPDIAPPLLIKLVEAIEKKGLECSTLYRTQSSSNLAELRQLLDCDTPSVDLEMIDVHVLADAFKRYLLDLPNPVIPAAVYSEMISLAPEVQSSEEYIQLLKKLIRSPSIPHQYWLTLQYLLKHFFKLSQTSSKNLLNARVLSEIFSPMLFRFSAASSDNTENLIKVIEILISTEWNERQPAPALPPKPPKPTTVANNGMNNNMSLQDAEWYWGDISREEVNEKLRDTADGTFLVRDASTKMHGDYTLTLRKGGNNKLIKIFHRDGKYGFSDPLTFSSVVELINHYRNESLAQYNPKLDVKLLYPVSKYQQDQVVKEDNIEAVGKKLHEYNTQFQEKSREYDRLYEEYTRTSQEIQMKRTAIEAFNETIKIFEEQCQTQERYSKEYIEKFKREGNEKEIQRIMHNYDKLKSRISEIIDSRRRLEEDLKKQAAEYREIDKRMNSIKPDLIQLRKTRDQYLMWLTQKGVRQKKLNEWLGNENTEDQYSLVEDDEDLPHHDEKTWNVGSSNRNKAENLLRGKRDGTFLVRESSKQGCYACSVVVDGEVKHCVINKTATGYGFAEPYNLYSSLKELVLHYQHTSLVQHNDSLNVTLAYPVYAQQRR

solubility (comparison) (Solubility comparison): significantly more soluble than MOL-153 | inhibition of / potency against purified PIK3CA (in words) (PIK3CA): potent dual inhibition
SMILES: CS(=O)(=O)Nc1cncc(-c2ccc3ncnc(Nc4cccc(Cl)c4)c3c2)c1 [MOL-162, N-(5-(4-((3-chlorophenyl)amino)quinazolin-6-yl)pyridin-3-yl)methanesulfonamide]
phosphorylation of EGFR in tumors [1]: completely suppressed | cellular modulation of EGFR and PI3K pathways [2]: cellular modulation of both pathways | phosphorylation of AKT in tumors [3]: not as strongly inhibited
